In patent US5210193A, “Piperazine derivatives” (American Cyanamid Company, priority 1990, dated 1993):
In brackets after ≈: the same amount, converted by molar mass.

Columns and labels:
[1] = system: Enterobacter aerogenes VGH 84-36; assay: in vitro antibacterial MIC, agar plate dilution; format: cell-based; settings: Klebsiella aerogenes, VGH8436, 18 hours, 35° C., read-out: MIC
Protocol: (§1) The in vitro antimicrobial spectrum of the compounds of ths invention were determined by the agar plate dilution method with Mueller-Hinton agar and an inoculum of each test organism of approximately 10^4 colony forming units delivered by the Steers replicating device. The minimal inhibitory concentration (MIC) in mcg/ml is defined as the lowest concentration of test compound that inhibited visible growth after 18 hours incubation at 35° C. Results are given in Table I, with the test compounds identified by the number of their hereinafter described examples.

[2] = system: Enterobacter cloacae VGH 84-37; assay: in vitro antibacterial MIC, agar plate dilution; format: cell-based; settings: Enterobacter cloacae, VGH8437, 18 h, 35° C., read-out: MIC
Protocol: as §1

[3] = system: Escherichia coli ATCC 25922; assay: in vitro antibacterial MIC, agar plate dilution; format: cell-based; settings: Escherichia coli, ATCC25922, 18 h, 35° C., read-out: MIC
Protocol: as §1

[4] = system: Escherichia coli CMC 84-11; assay: in vitro antibacterial MIC, agar plate dilution; format: cell-based; settings: Escherichia coli, CMC8411, 18 h, 35° C., read-out: MIC
Protocol: as §1

Klebsiella pneumoniae AD [5] = assay: in vitro antibacterial MIC, agar plate dilution; format: cell-based; settings: Klebsiella pneumoniae, 18 h, 35° C., read-out: MIC
Protocol: as §1

[6] = system: Klebsiella pneumoniae MOR 84-4; assay: in vitro antibacterial MIC, agar plate dilution; format: cell-based; settings: Klebsiella pneumoniae, MOR844, 18 h, 35° C., read-out: MIC
Protocol: as §1

[7] = system: Morganella morganii VGH 84-11; assay: in vitro antibacterial MIC, agar plate dilution; format: cell-based; settings: VGH8411, 18 hours, 35° C., read-out: MIC
Protocol: as §1

[8] = system: Proteus rettgeri CMC 84-41; assay: in vitro antibacterial MIC, agar plate dilution; format: cell-based; settings: Providencia rettgeri, CMC8441, 18 h, 35° C., read-out: MIC
Protocol: as §1

[9] = system: Pseudomonas aeruginosa VGH 84-4; assay: in vitro antibacterial MIC, agar plate dilution; format: cell-based; settings: Pseudomonas aeruginosa, VGH844, 18 h, 35° C., read-out: MIC
Protocol: as §1

[10] = system: Staphylococcus aureus ATCC 25913; assay: in vitro antibacterial MIC, agar plate dilution; format: cell-based; settings: ATCC25913, 18 hours, 35° C.
Protocol: as §1

[11] = system: Staphylococcus aureus Smith; assay: in vitro antibacterial MIC, agar plate dilution; format: cell-based; settings: Staphylococcus aureus, 18 h, 35° C., read-out: MIC
Protocol: as §1

Klebsiella pneumoniae AD [12] = assay: in vivo antibacterial activity, survival of infected mice (Table II); parameters: species or system Charles River CD-1 mice; settings: subcutaneous
Protocol: Charles River CD-1 mice were infected with either Klebsiella pneumoniae AD or Staphylococcus aureus Smith. A single subcutaneous dose of the test compound was administered 1/2 hour after infection. […] The results appear in Tables II and III, wherein the representative test compounds are identified by the number of their hereinafter described examples.

MIC [1] [µg/mL] | MIC [2] [µg/mL] | MIC [3] [µg/mL] | MIC [4] [µg/mL] | MIC (Klebsiella pneumoniae AD [5]) [µg/mL] | MIC [6] [µg/mL] | MIC [7] [µg/mL] | MIC [8] [µg/mL] | MIC [9] [µg/mL] | MIC [10] [µg/mL] | MIC [11] [µg/mL] | Compound | Survival Ratio 7 Days After Infection (Klebsiella pneumoniae AD [12]; 0.25 mg/kg single dose) | Survival Ratio 7 Days After Infection (Klebsiella pneumoniae AD [12]; 0.5 mg/kg single dose) | Survival Ratio 7 Days After Infection (Klebsiella pneumoniae AD [12]; 1 mg/kg single dose) | Survival Ratio 7 Days After Infection (Klebsiella pneumoniae AD [12]; 2 mg/kg single dose) | Survival Ratio 7 Days After Infection (Klebsiella pneumoniae AD [12]; 4 mg/kg single dose) | Survival Ratio 7 Days After Infection (Klebsiella pneumoniae AD [12]; 8 mg/kg single dose) | Survival Ratio 7 Days After Infection (Klebsiella pneumoniae AD [12]; 16 mg/kg single dose)
16 (≈ 38.5 µM) | 4 (≈ 9.63 µM) | 4 (≈ 9.63 µM) | 4 (≈ 9.63 µM) | 4 (≈ 9.63 µM) | 8 (≈ 19.3 µM) | 8 (≈ 19.3 µM) | 8 (≈ 19.3 µM) | 32 (≈ 77 µM) | 1 (≈ 2.41 µM) | 0.25 (≈ 0.602 µM) | CCn1cc(C(=O)O)c(=O)c2cc(F)c(N3CCN(C)C(c4cccs4)C3)cc21 (stereo not drawn) [Example 31, 1-Ethyl-6-fluoro-1,4-dihydro-7-[4-methyl-3-(2-thienyl)piperazinyl]-4-oxo-3-quinolinecarboxylic acid] | – | – | – | – | – | – | –
0.5 (≈ 1.2 µM) | 0.5 (≈ 1.2 µM) | 0.5 (≈ 1.2 µM) | 0.25 (≈ 0.602 µM) | 0.5 (≈ 1.2 µM) | 0.5 (≈ 1.2 µM) | 0.5 (≈ 1.2 µM) | 0.5 (≈ 1.2 µM) | 8 (≈ 19.3 µM) | 0.25 (≈ 0.602 µM) | ≤ 0.12 | CCn1cc(C(=O)O)c(=O)c2cc(F)c(N3CCNC(c4cc(C)cs4)C3)cc21 (stereo not drawn) [Example 40, 1-Ethyl-6-fluoro-1,4-dihydro-7-[3-(4-methyl-2-thienyl)-1-piperazinyl]-4-oxo-3-quinolinecarboxylic acid] | – | – | – | – | – | – | –
0.5 (≈ 1.25 µM) | 0.25 (≈ 0.626 µM) | 0.25 (≈ 0.626 µM) | ≤ 0.12 | ≤ 0.12 | 0.25 (≈ 0.626 µM) | 0.25 (≈ 0.626 µM) | 0.25 (≈ 0.626 µM) | 4 (≈ 10 µM) | ≤ 0.12 | ≤ 0.12 | CCn1cc(C(=O)O)c(=O)c2cc(F)c(N3CCNC(c4ccc(C)o4)C3)cc21 (stereo not drawn) [Example 42, 1-Ethyl-6-fluoro-1,4-dihydro-7-[3-(5-methyl-2-furanyl)-1-piperazinyl]-4-oxo-3-quinolinecarboxylic acid] | – | – | – | – | – | – | –
– | – | – | – | – | – | – | – | – | – | – | Clc1ccc2oc(C3CNCCN3)cc2c1 (stereo not drawn) [Example 17, 2-(5-Chloro-2-benzofuranyl)piperazine] | 0/5 | 0/5 | 0/5 | 0/5 | 1/5 | 5/5 | 5/5
8 (≈ 18.2 µM) | 4 (≈ 9.1 µM) | 4 (≈ 9.1 µM) | 2 (≈ 4.55 µM) | 4 (≈ 9.1 µM) | 8 (≈ 18.2 µM) | 4 (≈ 9.1 µM) | 2 (≈ 4.55 µM) | 64 (≈ 146 µM) | 2 (≈ 4.55 µM) | 1 (≈ 2.28 µM) | CCn1cc(C(=O)O)c(=O)c2cc(F)c(N3CCN(C)C(COc4ccccc4)C3)cc21 (stereo not drawn) [Example 11, 1-Ethyl-6-fluoro-1,4-dihydro-7-[4-methyl-3-(phenoxy-methyl)-1-piperazinyl]-4-oxo-3-quinolinecarboxylic acid] | – | – | – | – | – | – | –
0.5 (≈ 1.38 µM) | 0.25 (≈ 0.688 µM) | 0.5 (≈ 1.38 µM) | 0.25 (≈ 0.688 µM) | 0.25 (≈ 0.688 µM) | 0.5 (≈ 1.38 µM) | 0.25 (≈ 0.688 µM) | 0.5 (≈ 1.38 µM) | 8 (≈ 22 µM) | 2 (≈ 5.5 µM) | 0.5 (≈ 1.38 µM) | CCn1cc(C(=O)O)c(=O)c2cc(F)c(N3CCNC(COC)C3)cc21 (stereo not drawn) [Example 7, 1-Ethyl-6-fluoro-1,4-dihydro-7-[3-(methoxymethyl)-1-piperazinyl]-4-oxo-3-quinolinecarboxylic acid] | – | – | – | – | – | – | –
4 (≈ 9.18 µM) | 1 (≈ 2.29 µM) | 1 (≈ 2.29 µM) | 1 (≈ 2.29 µM) | 1 (≈ 2.29 µM) | 2 (≈ 4.59 µM) | 1 (≈ 2.29 µM) | 1 (≈ 2.29 µM) | 16 (≈ 36.7 µM) | 0.25 (≈ 0.574 µM) | 0.25 (≈ 0.574 µM) | CCn1cc(C(=O)O)c(=O)c2cc(F)c(N3CCNC(c4ccc(Cl)s4)C3)cc21 (stereo not drawn) [Example 34, 7-[3-(5-Chloro-2-thienyl)-1-piperazinyl]-1-ethyl-6-fluoro-1,4-dihydro-4-oxo-3-quinolinecarboxylic acid] | – | – | – | – | – | – | –
> 256 | 32 (≈ 66.6 µM) | 16 (≈ 33.3 µM) | 16 (≈ 33.3 µM) | 16 (≈ 33.3 µM) | 64 (≈ 133 µM) | 16 (≈ 33.3 µM) | 16 (≈ 33.3 µM) | > 256 | 2 (≈ 4.16 µM) | 0.5 (≈ 1.04 µM) | CCn1cc(C(=O)O)c(=O)c2cc(F)c(N3CCNC(c4ccc(Br)s4)C3)cc21 (stereo not drawn) [Example 13, 7-[3-(5-Bromo-2-thienyl)-1-piperazinyl]-1-ethyl-6-fluoro-1,4-dihydro-4-oxo-3-quinolinecarboxylic acid] | – | – | – | – | – | – | –
